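Where inhibition never reached the appropriate level, the endpoint shown equals the highest concentration tested. Otherwise, values were interpolated linearly from a five-concentration, 48-hour dose response in 96-well plates. TGI marks complete inhibition of growth.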
Columns and labels:
Assay in all cases: NCI-60 cell line screen, 48 h
[1] = tested on: LOX IMVI melanoma
[2] = tested on: SNB-19 CNS
[3] = tested on: MCF7 breast
[4] = tested on: IGROV1 ovarian
[5] = tested on: HL-60(TB) leukemia
[6] = tested on: MDA-N
[7] = tested on: SNB-75 CNS
[8] = tested on: A549 NSCLC
[9] = tested on: SK-MEL-2 melanoma
[10] = tested on: SN12C renal
[11] = tested on: TK-10 renal
[12] = tested on: SF-295 CNS
[13] = tested on: OVCAR-8 ovarian
[14] = tested on: HOP-92 NSCLC
[15] = tested on: K-562 leukemia
[16] = tested on: KM12 colon
[17] = tested on: OVCAR-5 ovarian
[18] = tested on: SR leukemia
[19] = tested on: UACC-62 melanoma
[20] = tested on: SF-539 CNS
[21] = tested on: NCI/ADR-RES ovarian
[22] = tested on: NCI-H522 lung
[23] = tested on: SF-268 CNS
[24] = tested on: HCC-2998 colon
[25] = tested on: HOP-62 NSCLC
[26] = tested on: UACC-257 melanoma
[27] = tested on: NCI-H23 lung
[28] = tested on: DU-145 prostate
[29] = tested on: HCT-15 colon
[30] = tested on: MOLT-4 leukemia
[31] = tested on: NCI-H460 lung
[32] = tested on: SK-MEL-5 melanoma
[33] = tested on: OVCAR-4 ovarian
[34] = tested on: T-47D breast
[35] = tested on: HS 578T breast
[36] = tested on: A498 renal
[37] = tested on: SK-MEL-28 melanoma
[38] = tested on: SW-620 colon
[39] = tested on: RPMI-8226 leukemia
[40] = tested on: HCT-116 colon
[41] = tested on: NCI-H226 lung
[42] = tested on: ACHN renal
[43] = tested on: MALME-3M melanoma
[44] = tested on: PC-3 prostate
[45] = tested on: OVCAR-3 ovarian
[46] = tested on: U251 CNS
[47] = tested on: M14 melanoma
[48] = tested on: COLO 205 colon
[49] = tested on: MDA-MB-231 breast
[50] = tested on: 786-0 renal
[51] = tested on: HT29 colon
[52] = tested on: RXF 393 renal
[53] = tested on: SK-OV-3 ovarian
[54] = tested on: BT-549 breast
[55] = tested on: EKVX NSCLC
[56] = tested on: MDA-MB-435
[57] = tested on: CAKI-1 renal

Measured: TGI

COCCc1c(C)c(C#N)c2n(C)c3ccccc3n2c1=O
> 10 µM: all assays above

From PubChem BioAssay (NCI)
